Reference: patent publication US10174047B2, “Thienodiazepine derivatives or pharmaceutically acceptable salts thereof, and pharmaceutical composition including the same as an active ingredient” (Industry-University Cooperation Foundation Hanyang …, priority 2015, dated 2019)
Read-outs that look alike come from different tables or passages of the source.

Legend:
[1] = target: RET (Homo sapiens, UniProt P07949); assay: Kinase panel screening; assay type: biochemical
Protocol: (§1) Using the compound of Example 43 (1-(4-((4-ethylpiperazine-1-yl)methyl)-3-(trifluoromethyl)phenyl)-3-(4-(2-oxo-2,3-dihydro-1H-thieno[3,4-b][1,4]diazepine-4-yl)phenyl)urea), kinase panel screening was conducted against 35 kinds of kinases at a concentration of 10 μM, and the results are shown in the following Tables 4 and 5 (percentages of enzymatic inhibitions exerted by compound 43 (10 μM) on 30 selected protein kinases).
(§2) Further, the IC50 values (50% inhibition concentration) of the compound of Example 43 against various kinases were calculated using GraphPad Prism 4.0 software, and the results are shown in the following Table 6.

[2] = target: SYK (Homo sapiens, UniProt P43405); assay: Kinase panel screening; assay type: biochemical
Protocol: as §1, §2

[3] = target: LYN (Homo sapiens, UniProt P07948); assay: Kinase panel screening; assay type: biochemical
Protocol: as §1, §2

[4] = target: FAK/PTK2 (Homo sapiens, UniProt Q05397); assay: Kinase panel screening; assay type: biochemical; details: FAK/PTK2, 10 μM
Protocol: as §1, §2

[5] = target: FGFR1 (Homo sapiens, UniProt P11362); assay: Kinase panel screening; assay type: biochemical; details: FGFR1, 10 μM
Protocol: as §1, §2

[6] = target: FLT1/VEGFR1 (Homo sapiens, UniProt P17948); assay: Kinase panel screening; assay type: biochemical; details: FLT1/VEGFR1, 10 μM
Protocol: as §1, §2

[7] = target: FLT4/VEGFR3 (Homo sapiens, UniProt P35916); assay: Kinase panel screening; assay type: biochemical; details: FLT4/VEGFR3, 10 μM
Protocol: as §1, §2

[8] = target: GSK3b (Homo sapiens, UniProt P49841); assay: Kinase panel screening; assay type: biochemical
Protocol: as §1, §2

[9] = target: ERK1 (Homo sapiens, UniProt P27361); assay: Kinase panel screening; assay type: biochemical; details: ERK1, 10 μM
Protocol: as §1, §2

[10] = target: CDK2/cyclin E (Homo sapiens, UniProt P24941); assay: Kinase panel screening; assay type: biochemical
Protocol: as §1, §2

[11] = target: TIE2/TEK (Homo sapiens, UniProt Q02763); assay: Kinase panel screening; assay type: biochemical
Protocol: as §1, §2

[12] = target: FLT3 (Homo sapiens, UniProt P36888); assay: Kinase panel screening; assay type: biochemical; details: FLT3, 10 μM
Protocol: as §1, §2

[13] = target: P38a/MAPK14 (Homo sapiens, UniProt Q16539); assay: Kinase panel screening; assay type: biochemical; details: P38a/MAPK14, 10 μM
Protocol: as §1, §2

[14] = target: EGFR (Homo sapiens, UniProt P00533); assay: Kinase panel screening; assay type: biochemical
Protocol: as §1, §2

[15] = target: PDGFRa (Homo sapiens, UniProt P16234); assay: Kinase panel screening; assay type: biochemical
Protocol: as §1, §2

[16] = target: PDGFRb (Homo sapiens, UniProt P09619); assay: Kinase panel screening; assay type: biochemical
Protocol: as §1, §2

[17] = target: IGF1R (Homo sapiens, UniProt P08069); assay: Kinase panel screening; assay type: biochemical
Protocol: as §1, §2

[18] = target: BRAF (V599E) (Homo sapiens, UniProt P15056, V600E); assay: Kinase panel screening; assay type: biochemical
Protocol: as §1, §2

[19] = target: ITK (Homo sapiens, UniProt Q08881); assay: Kinase panel screening; assay type: biochemical
Protocol: as §1, §2

[20] = target: c-MET (Homo sapiens, UniProt P08581); assay: Kinase panel screening; assay type: biochemical
Protocol: as §1, §2

[21] = target: FGFR2 (Homo sapiens, UniProt P21802); assay: Kinase panel screening; assay type: biochemical; details: FGFR2, 10 μM
Protocol: as §1, §2

[22] = target: c-Src (Homo sapiens, UniProt P12931); assay: Kinase panel screening; assay type: biochemical
Protocol: as §1, §2

[23] = target: FMS (Homo sapiens, UniProt P07333); assay: Kinase panel screening; assay type: biochemical
Protocol: as §1, §2

[24] = target: ALK (Homo sapiens, UniProt Q9UM73); assay: Kinase panel screening; assay type: biochemical
Protocol: as §1, §2

[25] = target: Aurora A (Homo sapiens, UniProt O14965); assay: Kinase panel screening; assay type: biochemical
Protocol: as §1, §2

[26] = target: KDR/VEGFR2 (Homo sapiens, UniProt P35968); assay: Kinase panel screening; assay type: biochemical; details: KDR/VEGFR2, 10 μM
Protocol: as §1, §2

[27] = target: RAF1 (Homo sapiens, UniProt P04049); assay: Kinase panel screening; assay type: biochemical; details: RAF1, 10 μM
Protocol: as §1, §2

[28] = target: ROS/ROS1 (Homo sapiens, UniProt P08922); assay: Kinase panel screening; assay type: biochemical; details: ROS/ROS1, 10 μM
Protocol: as §1, §2

[29] = target: FGFR3 (Homo sapiens, UniProt P22607); assay: Kinase panel screening; assay type: biochemical; details: FGFR3, 10 μM
Protocol: as §1, §2

[30] = target: LCK (Homo sapiens, UniProt P06239); assay: Kinase panel screening; assay type: biochemical
Protocol: as §1, §2

[31] = target: MEK1 (Homo sapiens, UniProt Q02750); assay: Kinase panel screening; assay type: biochemical; details: MEK1, 10 μM
Protocol: as §1, §2

[32] = target: AKT1 (Homo sapiens, UniProt P31749); assay: Kinase panel screening; assay type: biochemical; details: AKT1, 10 μM
Protocol: as §1, §2

[33] = target: c-Kit (Homo sapiens, UniProt P10721); assay: Kinase panel screening; assay type: biochemical
Protocol: as §1, §2

[34] = target: CDK1/cyclin B (Homo sapiens, UniProt P06493); assay: Kinase panel screening; assay type: biochemical
Protocol: as §1, §2

[35] = target: BRAF (Homo sapiens, UniProt P15056); assay: Kinase panel screening; assay type: biochemical
Protocol: as §1, §2

[36] = system: A375P cell line (melanoma); assay: Proliferation inhibition activity against A375P cell line (MTT assay); assay type: cell-based; details: A375P melanoma cells; for GI50: MTT assay

LCK, sequence (P06239 whole entry): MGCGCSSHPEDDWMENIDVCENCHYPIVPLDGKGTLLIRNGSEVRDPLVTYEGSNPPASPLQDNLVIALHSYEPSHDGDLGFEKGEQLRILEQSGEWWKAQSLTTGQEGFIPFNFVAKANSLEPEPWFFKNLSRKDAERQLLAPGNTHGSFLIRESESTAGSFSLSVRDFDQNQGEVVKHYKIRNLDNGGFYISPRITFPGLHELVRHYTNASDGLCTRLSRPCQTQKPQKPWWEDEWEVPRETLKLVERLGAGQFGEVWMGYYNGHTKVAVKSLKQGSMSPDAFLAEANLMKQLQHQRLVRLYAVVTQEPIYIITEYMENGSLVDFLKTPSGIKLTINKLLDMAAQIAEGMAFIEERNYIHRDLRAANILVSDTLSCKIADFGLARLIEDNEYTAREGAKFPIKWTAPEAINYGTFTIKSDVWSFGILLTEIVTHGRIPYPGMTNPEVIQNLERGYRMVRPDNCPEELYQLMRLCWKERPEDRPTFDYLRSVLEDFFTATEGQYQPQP
PDGFRb, sequence (P09619 33-1106, species assumed): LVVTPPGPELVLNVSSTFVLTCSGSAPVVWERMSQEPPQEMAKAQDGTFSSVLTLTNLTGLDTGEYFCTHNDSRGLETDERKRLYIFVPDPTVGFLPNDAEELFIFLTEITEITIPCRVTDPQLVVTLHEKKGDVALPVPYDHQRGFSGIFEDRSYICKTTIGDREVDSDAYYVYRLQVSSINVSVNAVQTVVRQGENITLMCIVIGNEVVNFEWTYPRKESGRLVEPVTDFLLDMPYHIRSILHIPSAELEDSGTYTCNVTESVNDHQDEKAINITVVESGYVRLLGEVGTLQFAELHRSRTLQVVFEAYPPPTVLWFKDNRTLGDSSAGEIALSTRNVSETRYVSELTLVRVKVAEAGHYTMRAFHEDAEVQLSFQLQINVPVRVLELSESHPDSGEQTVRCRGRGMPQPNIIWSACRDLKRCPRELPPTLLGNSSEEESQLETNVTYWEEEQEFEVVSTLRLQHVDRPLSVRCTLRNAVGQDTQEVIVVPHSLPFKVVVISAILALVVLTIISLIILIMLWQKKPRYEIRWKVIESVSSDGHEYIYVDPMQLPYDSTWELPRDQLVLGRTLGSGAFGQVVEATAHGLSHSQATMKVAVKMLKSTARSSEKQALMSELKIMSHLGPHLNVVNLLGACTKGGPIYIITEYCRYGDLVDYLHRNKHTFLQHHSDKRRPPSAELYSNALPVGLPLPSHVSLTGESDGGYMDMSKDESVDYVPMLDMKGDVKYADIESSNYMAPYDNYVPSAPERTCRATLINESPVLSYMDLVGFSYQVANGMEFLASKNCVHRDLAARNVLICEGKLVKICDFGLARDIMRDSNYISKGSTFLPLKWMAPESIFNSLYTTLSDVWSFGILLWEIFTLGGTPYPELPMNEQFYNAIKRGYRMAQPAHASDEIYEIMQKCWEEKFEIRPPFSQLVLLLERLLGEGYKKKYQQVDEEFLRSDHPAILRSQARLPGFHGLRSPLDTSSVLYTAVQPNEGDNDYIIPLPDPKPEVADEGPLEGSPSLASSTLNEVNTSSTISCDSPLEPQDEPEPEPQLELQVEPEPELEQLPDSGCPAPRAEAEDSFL
ALK, sequence (Q9UM73 19-1620): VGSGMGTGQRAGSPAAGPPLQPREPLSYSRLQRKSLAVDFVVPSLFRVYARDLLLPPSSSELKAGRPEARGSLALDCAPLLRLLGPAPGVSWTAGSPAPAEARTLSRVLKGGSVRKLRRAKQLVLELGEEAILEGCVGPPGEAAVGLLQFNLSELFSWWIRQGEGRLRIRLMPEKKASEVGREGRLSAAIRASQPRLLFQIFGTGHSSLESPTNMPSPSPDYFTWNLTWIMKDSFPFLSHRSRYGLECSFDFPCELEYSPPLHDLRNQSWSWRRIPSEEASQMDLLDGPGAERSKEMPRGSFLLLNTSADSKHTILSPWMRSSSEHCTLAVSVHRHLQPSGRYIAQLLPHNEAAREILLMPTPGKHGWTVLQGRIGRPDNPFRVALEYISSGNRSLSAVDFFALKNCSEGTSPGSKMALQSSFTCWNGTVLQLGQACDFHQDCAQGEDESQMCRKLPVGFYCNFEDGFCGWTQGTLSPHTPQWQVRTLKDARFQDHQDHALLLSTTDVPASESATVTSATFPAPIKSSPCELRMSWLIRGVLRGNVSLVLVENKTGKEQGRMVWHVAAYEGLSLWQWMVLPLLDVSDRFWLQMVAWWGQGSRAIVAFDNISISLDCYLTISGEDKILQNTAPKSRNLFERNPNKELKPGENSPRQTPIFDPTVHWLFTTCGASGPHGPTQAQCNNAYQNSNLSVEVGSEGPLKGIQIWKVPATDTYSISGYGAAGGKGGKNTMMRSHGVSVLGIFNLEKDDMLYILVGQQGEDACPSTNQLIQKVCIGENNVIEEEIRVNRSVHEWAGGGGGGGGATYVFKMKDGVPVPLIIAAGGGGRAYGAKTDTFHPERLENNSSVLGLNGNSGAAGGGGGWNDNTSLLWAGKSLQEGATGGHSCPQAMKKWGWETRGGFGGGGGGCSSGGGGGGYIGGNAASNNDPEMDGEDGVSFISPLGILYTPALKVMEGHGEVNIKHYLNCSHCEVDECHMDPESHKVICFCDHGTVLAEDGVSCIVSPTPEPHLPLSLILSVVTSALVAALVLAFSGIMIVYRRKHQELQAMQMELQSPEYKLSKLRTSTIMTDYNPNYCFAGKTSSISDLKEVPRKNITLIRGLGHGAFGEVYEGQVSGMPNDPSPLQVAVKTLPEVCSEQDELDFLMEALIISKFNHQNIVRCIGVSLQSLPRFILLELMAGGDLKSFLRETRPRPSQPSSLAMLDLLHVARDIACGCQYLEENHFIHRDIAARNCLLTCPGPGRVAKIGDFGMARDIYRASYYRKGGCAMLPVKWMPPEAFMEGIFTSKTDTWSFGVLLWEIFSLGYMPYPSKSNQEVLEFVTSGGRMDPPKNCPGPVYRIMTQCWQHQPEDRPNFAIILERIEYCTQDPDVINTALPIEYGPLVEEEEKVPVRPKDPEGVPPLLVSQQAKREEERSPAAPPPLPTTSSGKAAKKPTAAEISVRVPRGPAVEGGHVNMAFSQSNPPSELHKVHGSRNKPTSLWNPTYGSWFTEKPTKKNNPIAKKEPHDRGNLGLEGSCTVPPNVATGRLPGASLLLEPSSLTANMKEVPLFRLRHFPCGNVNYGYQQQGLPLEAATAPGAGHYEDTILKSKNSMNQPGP
P38a/MAPK14, sequence (Q16539 whole entry): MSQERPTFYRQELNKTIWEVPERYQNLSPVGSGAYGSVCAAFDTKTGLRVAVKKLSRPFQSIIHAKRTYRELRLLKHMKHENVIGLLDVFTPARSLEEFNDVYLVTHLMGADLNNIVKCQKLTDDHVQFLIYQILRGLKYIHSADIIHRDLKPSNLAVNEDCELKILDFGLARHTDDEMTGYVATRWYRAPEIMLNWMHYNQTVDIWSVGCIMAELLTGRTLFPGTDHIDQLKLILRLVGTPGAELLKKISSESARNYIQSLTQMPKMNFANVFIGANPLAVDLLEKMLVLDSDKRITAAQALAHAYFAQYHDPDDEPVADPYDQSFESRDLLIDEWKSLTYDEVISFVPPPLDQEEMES
c-MET, sequence (P08581 25-1390): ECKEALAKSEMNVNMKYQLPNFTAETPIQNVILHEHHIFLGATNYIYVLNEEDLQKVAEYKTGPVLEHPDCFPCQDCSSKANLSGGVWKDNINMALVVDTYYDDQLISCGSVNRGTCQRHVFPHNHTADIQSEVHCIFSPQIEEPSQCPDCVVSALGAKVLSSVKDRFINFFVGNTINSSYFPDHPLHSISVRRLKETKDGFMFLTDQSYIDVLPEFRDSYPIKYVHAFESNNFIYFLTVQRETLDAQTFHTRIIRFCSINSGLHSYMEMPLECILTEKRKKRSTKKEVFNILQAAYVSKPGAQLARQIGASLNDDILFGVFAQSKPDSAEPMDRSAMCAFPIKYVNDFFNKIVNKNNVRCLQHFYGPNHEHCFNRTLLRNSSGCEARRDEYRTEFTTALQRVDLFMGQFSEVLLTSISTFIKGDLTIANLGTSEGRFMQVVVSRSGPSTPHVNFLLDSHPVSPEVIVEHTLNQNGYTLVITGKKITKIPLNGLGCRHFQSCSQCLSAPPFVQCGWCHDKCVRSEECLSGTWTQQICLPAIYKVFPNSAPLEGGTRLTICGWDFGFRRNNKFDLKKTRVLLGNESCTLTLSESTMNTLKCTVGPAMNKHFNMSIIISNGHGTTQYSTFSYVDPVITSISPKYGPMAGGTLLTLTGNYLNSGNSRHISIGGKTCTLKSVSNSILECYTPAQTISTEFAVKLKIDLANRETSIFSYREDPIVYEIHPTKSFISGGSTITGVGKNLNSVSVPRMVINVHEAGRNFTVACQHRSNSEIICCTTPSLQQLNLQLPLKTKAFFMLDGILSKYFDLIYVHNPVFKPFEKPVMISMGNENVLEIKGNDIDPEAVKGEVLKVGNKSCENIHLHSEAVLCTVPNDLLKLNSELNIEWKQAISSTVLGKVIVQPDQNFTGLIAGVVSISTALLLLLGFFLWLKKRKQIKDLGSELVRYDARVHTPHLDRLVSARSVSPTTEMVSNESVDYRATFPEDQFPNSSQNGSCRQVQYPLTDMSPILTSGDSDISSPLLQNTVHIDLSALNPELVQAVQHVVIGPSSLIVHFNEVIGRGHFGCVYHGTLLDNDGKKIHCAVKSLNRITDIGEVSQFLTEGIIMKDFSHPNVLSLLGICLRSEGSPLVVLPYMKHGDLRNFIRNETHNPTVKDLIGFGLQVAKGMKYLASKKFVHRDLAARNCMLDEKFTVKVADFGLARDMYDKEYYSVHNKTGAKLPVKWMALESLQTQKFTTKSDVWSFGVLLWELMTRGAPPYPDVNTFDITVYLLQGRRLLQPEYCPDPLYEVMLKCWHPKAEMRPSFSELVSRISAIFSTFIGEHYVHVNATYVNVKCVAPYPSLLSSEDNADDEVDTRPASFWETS

inhibition at 10 µM [1]: 99.1%
inhibition at 10 µM [2]: 57.4%
inhibition at 10 µM [3]: 89.4%
inhibition at 10 µM [4]: 41.2%
inhibition at 10 µM [5]: 34.4%
inhibition at 10 µM [6]: 79.1%
inhibition at 10 µM [7]: 95.8%
inhibition at 10 µM [8]: 8.62%
inhibition at 10 µM [9]: 1.22%
inhibition at 10 µM [10]: 0.28%
inhibition at 10 µM [11]: 64.9%
inhibition at 10 µM [12]: 98.9%
inhibition at 10 µM [13]: 89.9%
inhibition at 10 µM [14]: 24.8%
inhibition at 10 µM [15]: 85.9%
inhibition at 10 µM [16]: 96.1%
inhibition at 10 µM [17]: 1.34%
inhibition at 10 µM [18]: 43.9%
inhibition at 10 µM [19]: 20.7%
inhibition at 10 µM [20]: 21.7%
inhibition at 10 µM [21]: 29.9%
inhibition at 10 µM [22]: 55.2%
inhibition at 10 µM [23]: 100%
inhibition at 10 µM [24]: 41%
inhibition at 10 µM [25]: 20.4%
inhibition at 10 µM [26]: 60.2%
inhibition at 10 µM [27]: 86.2%
inhibition at 10 µM [28]: 3.71%
inhibition at 10 µM [29]: 45%
inhibition at 10 µM [30]: 79.3%
inhibition at 10 µM [31]: 5.26%
inhibition at 10 µM [32]: 3.23%
inhibition at 10 µM [33]: 85.9%
inhibition at 10 µM [34]: 2.68%
inhibition at 10 µM [35]: 32%
GI50 ([36]; read-out: A375P (GI50)): < 1 µM
GI50 ([36]; read-out: GI50 value against A375P): 1.45 µM
Compound: CCN1CCN(Cc2ccc(NC(=O)Nc3ccc(C4=Nc5cscc5NC(=O)C4)cc3)cc2C(F)(F)F)CC1 [Example 43, 1-(4-((4-ethylpiperazine-1-yl)methyl)-3-(trifluoromethyl)phenyl)-3-(4-(2-oxo-2,3-dihydro-1H-thieno[3,4-b][1,4]diazepine-4-yl)phenyl)urea]
effects against A375P ([36]; statement in words): significant effects
